In patent publication US9718858B2, “Tunable control of protein degradation in synthetic and endogenous bacterial systems” (priority 2013, dated 2017):

Key:
mf-Lon [1] = assay: E. coli-based GFP-pdt degradation platform, Example 2 (genomically integrated codon-optimized mf-Lon, flow cytometry); type: cell-based; details: for 50 ng/ml ATc (GFP fluorescence, untagged GFP set to 100) / 0 ng/ml ATc (GFP fluorescence, untagged GFP set to 100): GFP-pdt fusion in E. coli, flow cytometry, 6 hours; for 50 ng/ml ATc (GFP fluorescence, untagged GFP set to 100): mf-Lon induced with 50 ng/ml ATc; for 0 ng/ml ATc (GFP fluorescence, untagged GFP set to 100): no mf-Lon induction
Protocol: Strains and Reagents. The E. coli K-12 derivative strain MG1655Pro (F-, λ-, Spr, lacI, tetR) published previously^2,42 was used as the wild-type strain in all cases except for the synthetic toggle experiments where the inventors used MG1655ΔlacIΔaraBAD, prepared as described in the herein. Unless otherwise noted, E. coli were grown in Luria broth (LB) at 30° C. with shaking and mf-Lon expression was induced with 50 ng/ml ATc. L. lactis strain […] was used for all L. lactis experiments and grown in M17 broth containing 0.5% glucose. Antibiotics carbenicillin (100 ug/ml), kanamycin (30 ug/ml) and erythromycin (10 ug/ml) were added to the media when appropriate. All plasmids and strain mutations were verified by sequencing, and plasmid maps will be deposited in GenBank.
E. coli-Based Degradation Platform. The mf-lon gene was codon optimized for E. coli expression, placed under control of the PLtetO promoter, and integrated into the lacZ locus along with 5′ and 3′ transcriptional terminators to block unwanted mf-Lon expression from any proximal genomic promoters. The GFP variant GFPmut3b was used for all GFP expression, and GFP-pdt and mCherry-pdt variants were expressed from the constitutive PlacIq promoter on a high-copy plasmid containing the ColE1 origin and the kanamycin resistance cassette kanR.
Flow Cytometry. Data for GFP and mCherry degradation dynamics were collected using an LSRFortessa cell analyzer equipped with a High Throughput Sampler (BD Biosciences), and data for the synthetic toggle switch were collected using a FACSArian flow cytometer (BD Biosciences). For each measurement, cells were fixed in 1% paraformaldehyde (PFA), held at 4° C. for up to 5 days, and then diluted 1:10 in PBS for analysis. At least 5,000 cells were collected for each measurement and FloJo (Treestar) was used for data analysis. […]

[2] = system: synthetic toggle switch (LacI/TetR); assay: Protease-driven control of a synthetic toggle switch, Example 2; type: cell-based, E. coli
Protocol: Flow Cytometry. Data for GFP and mCherry degradation dynamics were collected using an LSRFortessa cell analyzer equipped with a High Throughput Sampler (BD Biosciences), and data for the synthetic toggle switch were collected using a FACSArian flow cytometer (BD Biosciences). For each measurement, cells were fixed in 1% paraformaldehyde (PFA), held at 4° C. for up to 5 days, and then diluted 1:10 in PBS for analysis. At least 5,000 cells were collected for each measurement and FloJo (Treestar) was used for data analysis.
Synthetic Toggle Switch. The plasmid pKDL071R8, based on pKDL07143, was altered to contain a weakened tetR ribosome binding site (RBS) to enhance toggle bistability in the minimal media conditions used. This plasmid served as the parental strain for all LacI-pdt toggle switch experiments. Pdt variants were fused to lad by overlapping PCR and cloned into pKDL071R8 using SacII and BsrGI. The arabinose inducible PBAD promoter was used to express mf-Lon from a second plasmid. Cells containing the toggle switch and mf-Lon expression plasmids were grown in 200 μl in 96-well round bottom plates at 37° C. in M9 minimal media containing 0.2% glycerol and 0.05% casamino acids, and care was taken to maintain exponential growth throughout the experiment. […]

mf-Lon [3] = assay: GFP-pdt degradation platform in E. coli, Example 1 (plasmid-borne aTc-inducible mf-Lon); type: cell-based; details: for Fold Degradation: 0 ng/ml aTc versus 50 ng/ml aTc; for 50 ng/ml aTc (GFP fluorescence, untagged GFP set to 100) / 0 ng/ml aTc (GFP fluorescence, untagged GFP set to 100): GFP-pdt fusion in E. coli, 10 h; for 50 ng/ml aTc (GFP fluorescence, untagged GFP set to 100): mf-Lon induced with 50 ng/ml aTc; for 0 ng/ml aTc (GFP fluorescence, untagged GFP set to 100): no mf-Lon induction
Protocol: Strains, Plasmids and Reagents. The E. coli K-12 derivative strain MG1655Pro (F-, λ-, Sp^r, lacI, tetR) published previously^1,46 was used as the wild-type strain in all cases except for the synthetic toggle experiments where MG1655ΔlacIΔaraBAD was prepared and used as described herein. Unless otherwise noted, bacteria were grown in Luria broth (LB) at 30° with shaking and mf-Lon expression was induced with 50 ng/ml aTc. Antibiotics carbenicillin (100 ug/ml) and kanamycin (30 ug/ml) were added to the media when appropriate. All plasmids and strain mutations were verified by sequencing, and plasmid maps will be deposited in GenBank.
GFP Degradation Platform. The GFP variant GFPmut3b^47 was used for all GFP expression. GFP-pdt variants were expressed from the constitutive PlacIq promoter^48 on a high-copy plasmid containing the ColE1 origin and a kanamycin-resistance cassette. The PLtetO promoter was used to express mf-Lon on a medium-copy plasmid containing the P15A origin and ampicillin-resistance cassette.
Flow Cytometry. GFP expression was measured using a […] (BD BIOSCIENCES) flow cytometer with the following voltage settings: FCS, 340; SCS, 270; FITC (for GFP), 520; mCherry, 615. At least 10,000 cells were collected for each measurement and FloJo was used for data analysis.
Plate Fluorimetry and Optical Density. Fluorescence and optical density measurements were made with a SPECTRAMAX M5 microplate reader (MOLECULAR DEVICES) using excitation and emission wavelengths of 488 nm and 520 nm, respectively, with an emission filter cutoff at 515 nm Optical density was measured at 600 nm (0D600). All measurements were made in 200 μl in 96-well clear bottom plates.
PDT Mutagenesis Screens. Polymerase chain reaction (PCR) primers containing randomized nucleotides were used to mutagenize the indicated pdt codons. Plasmids containing the mutagenized tags fused to gfp were co-transformed with the mf-Lon expression plasmid into MG1655Pro. Transformants were picked into 96-well plates, grown to mid-log phase, diluted 1:20 into media with and without 50 ng/ml aTc and measured by plate reader after 10 h growth.

In the case of “pdt#3A: Example 2: aa13-15 FKL, aa24-27 RRRV, SEQ ID NO 114 (AANKNEENTNEVFKLMLNAGQANRRRV)”, the “50 ng/ml ATc (GFP fluorescence, untagged GFP set to 100)” value (mf-Lon [1]) is reported as 27%, the “0 ng/ml ATc (GFP fluorescence, untagged GFP set to 100)” value (mf-Lon [1]) is reported as 115% and the “toggle switching relative to LacI-pdt#3” value [2] is reported as “provided temporal control over the circuit switch rate”.

With “pdt#3B: Example 2: aa13-15 RAI, aa24-27 RRRV, SEQ ID NO 18 (AANKNEENTNEVRAIMLNAGQANRRRV)” the “50 ng/ml ATc (GFP fluorescence, untagged GFP set to 100)” value (mf-Lon [1]) was 38%, the “0 ng/ml ATc (GFP fluorescence, untagged GFP set to 100)” value (mf-Lon [1]) was 100% and the “toggle switching relative to LacI-pdt#3” value [2] was “provided temporal control over the circuit switch rate”.

With “AANKNEENTNEVPTFMLNAGQANYAFA [pdt, reference compound]” the “Fold Degradation” value (mf-Lon [3]) was 20.7, the “50 ng/ml aTc (GFP fluorescence, untagged GFP set to 100)” value (mf-Lon [3]) was 0.6% and the “0 ng/ml aTc (GFP fluorescence, untagged GFP set to 100)” value (mf-Lon [3]) was 12.5%. The “drop in GFP following mf-Lon induction” value (mf-Lon [3]; from initial (steady-state) levels) was 21 fold, the “GFP-pdt levels compared with untagged GFP” value (mf-Lon [3]; late-log and stationary phase, constitutive expression, no mf-Lon) was “markedly lower” and the “GFP-pdt remaining, % of its initial levels after mf-Lon expression” value (mf-Lon [1]) was 3%. For the same substance, the “50 ng/ml ATc (GFP fluorescence, untagged GFP set to 100)” value (mf-Lon [1]) was 1% and the “0 ng/ml ATc (GFP fluorescence, untagged GFP set to 100)” value (mf-Lon [1]) was 50%.

For “pdt#3C: Example 2: aa13-15 AQP, aa24-27 RRRV, SEQ ID NO 22 (AANKNEENTNEVAQPMLNAGQANRRRV)”, the “50 ng/ml ATc (GFP fluorescence, untagged GFP set to 100)” value (mf-Lon [1]) was 48% and the “0 ng/ml ATc (GFP fluorescence, untagged GFP set to 100)” value (mf-Lon [1]) was 107%.

For pdt#1 (AANKNEENTNEVPTFMLNAGQANRLQL), the “Fold Degradation” value (mf-Lon [3]) was 24.6, the “50 ng/ml aTc (GFP fluorescence, untagged GFP set to 100)” value (mf-Lon [3]) was 0.9% and the “0 ng/ml aTc (GFP fluorescence, untagged GFP set to 100)” value (mf-Lon [3]) was 21.8%. The “50 ng/ml ATc (GFP fluorescence, untagged GFP set to 100)” value (mf-Lon [1]) was 1% and the “0 ng/ml ATc (GFP fluorescence, untagged GFP set to 100)” value (mf-Lon [1]) was 40%.

With “pdt#3D: Example 2: aa13-15 APN, aa24-27 RRRV, SEQ ID NO 19 (AANKNEENTNEVAPNMLNAGQANRRRV)” the “50 ng/ml ATc (GFP fluorescence, untagged GFP set to 100)” value (mf-Lon [1]) was 66% and the “0 ng/ml ATc (GFP fluorescence, untagged GFP set to 100)” value (mf-Lon [1]) was 104%.

With “pdt#3E: Example 2: aa13-15 PDG, aa24-27 RRRV, SEQ ID NO 115 (AANKNEENTNEVPDGMLNAGQANRRRV)” the “50 ng/ml ATc (GFP fluorescence, untagged GFP set to 100)” value (mf-Lon [1]) was 87% and the “0 ng/ml ATc (GFP fluorescence, untagged GFP set to 100)” value (mf-Lon [1]) was 112%.
